One series has as its target T1, CCR3 receptor (UniProt P51677).
T1 sequence (P51677 1-355): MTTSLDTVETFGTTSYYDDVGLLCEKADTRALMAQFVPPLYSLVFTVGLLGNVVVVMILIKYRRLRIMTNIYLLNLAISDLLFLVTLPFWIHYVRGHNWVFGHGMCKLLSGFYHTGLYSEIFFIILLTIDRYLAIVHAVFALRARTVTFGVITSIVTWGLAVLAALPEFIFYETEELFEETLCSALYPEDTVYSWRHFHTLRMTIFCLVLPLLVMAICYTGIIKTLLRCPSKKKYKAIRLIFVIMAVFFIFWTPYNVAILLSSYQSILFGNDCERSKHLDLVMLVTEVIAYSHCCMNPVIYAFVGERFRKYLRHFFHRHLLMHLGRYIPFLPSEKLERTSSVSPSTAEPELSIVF
Put plainly: CCR3 Receptor Binding Assay ([125I]-labeled human eotaxin/CCL11 displacement on cells). The settings on record: Free (free form of the compound). As for the experimental part:
Cells were washed once with PBS and resuspended in a binding buffer (25 mM HEPES pH 7.6, 5 mM MgCl2, 1 mM CaCl2, 0.5% BSA, 0.1% NaN3), […] of cell suspension (2×10^5 cells/well) and 0.1 nM [^125I]-labeled human eotaxin/CCL11 (2000 Ci/mmol specific activity) were mixed in a 96-well U-bottom polypropylene plate, and incubated for 60 min at room temperature for the binding reaction. The cell suspension was then transferred to a filtration plate (#MAFB, Millipore), and washed 3 times with the binding buffer containing 0.5 M NaCl, scintillant added, and the radioactivity was counted on a TopCount (Packard). For the determination of non-specific binding, the cell suspension and [^125I]-labeled human eotaxin/CCL11 were incubated in the presence of 500 nM of unlabeled human eotaxin/CCL11. See, lino et al., “Molecular cloning and functional characterization of cynomolgus monkey (Macaca fascicularis) CC chemokine receptor, CCR3,” Cytokine 2002, 19, 276-286.

Structures can show the parent of a compound that is named as a salt. Some results are limits rather than exact numbers.

We go through 15 compounds from patent publication US8669247B2, “2,5-disubstituted arylsulfonamide CCR3 antagonists” (Axikin Pharmaceuticals, Inc., priority 2009, dated 2014).

By melting point is commonly meant the temperature, or range, at which the solid turns liquid. Broadly, the Ki is the dissociation constant of the complex between target and ligand, obtained from inhibition or displacement. Read a high Ki as a looser hold on the target.

In the case of `CC(C)N1CCN(S(=O)(=O)c2cc(C#N)ccc2Oc2cc(F)ccc2F)CC1` (as salt: hydrochloride) [Compound 54, 4-(2,5-Difluorophenoxy)-3-(4-isopropylpiperazin-1-ylsulfonyl)benzonitrile], the melting point lay in the range of 179 to 182 °C.
In the case of `CC1CN(S(=O)(=O)c2cc(C#N)ccc2Sc2cc(Cl)ccc2Cl)CC(C)N1` (stereo not shown) (as salt: hydrochloride) [Compound 79, 4-(2,5-Dichlorophenylthio)-3-(3,5-dimethylpiperazin-1-ylsulfonyl)benzonitrile], the melting point is 176 to 180 °C.
Regarding `N#Cc1ccc(Oc2cc(F)ccc2F)c(S(=O)(=O)N2CCOCC2)c1` [Compound 58, 4-(2,5-Difluorophenoxy)-3-(morpholinosulfonyl)benzonitrile], the melting point is 165 to 168 °C. Also, the Ki on CCR3 receptor is > 5 nM.
Turning to `N#Cc1ccc(Sc2cc(Cl)ccc2Cl)c(S(=O)(=O)N2CCOCC2)c1` [Compound 82, 4-(2,5-Dichlorophenylthio)-3-(morpholinosulfonyl)benzonitrile], the melting point was 216 to 219 °C. In addition, the inhibition constant (Ki) on CCR3 receptor lay within 100 to 500 nM.
`CC1CN(S(=O)(=O)c2cc([N+](=O)[O-])ccc2Oc2cc(Cl)ccc2Cl)CC(C)N1` (stereo not shown) [Compound 104, 1-(2-(2,5-Dichlorophenoxy)-5-nitrophenylsulfonyl)-3,5-dimethylpiperazine]: the melting point fell in the range of 161 to 163 °C. This compound registered a Ki at CCR3 receptor of 10 to 25 nM.
`O=[N+]([O-])c1ccc(Sc2cc(Cl)ccc2Cl)c(S(=O)(=O)N2CCOCC2)c1` [Compound 110, 4-(2-(2,5-Dichlorophenylthio)-5-nitrophenylsulfonyl)morpholine] registered a melting point of 182 to 186 °C. The Ki at CCR3 receptor is > 5 nM.
In the case of `O=[N+]([O-])c1ccc(Oc2cc(Cl)ccc2Cl)c(S(=O)(=O)N2CCOCC2)c1` [Compound 111, 4-(2-(2,5-Dichlorophenoxy)-5-nitrophenylsulfonyl)morpholine], the melting point was 168 to 170 °C. Moreover, on CCR3 receptor, the Ki is > 5 nM.
Take `Cc1ccc(C)c(Sc2ccc([N+](=O)[O-])cc2S(=O)(=O)N2CCOCC2)c1` [Compound 112, 4-(2-(2,5-Dimethylphenylthio)-5-nitrophenylsulfonyl)morpholine]: the melting point lay in the range of 141 to 143 °C. In addition, at CCR3 receptor, the Ki was > 5 nM.
The compound `Cc1ccc(C)c(Oc2ccc([N+](=O)[O-])cc2S(=O)(=O)N2CCOCC2)c1` [Compound 113, 4-(2-(2,5-Dimethylphenoxy)-5-nitrophenylsulfonyl)morpholine] showed a melting point of 124 to 127 °C. Besides, the Ki at CCR3 receptor was > 5 nM.
For `O=[N+]([O-])c1ccc(Sc2cc(Cl)ccc2Cl)c(S(=O)(=O)N2CCSCC2)c1` [Compound 114, 4-(2-(2,5-Dichlorophenylthio)-5-nitrophenylsulfonyl)thiomorpholine] the same measures were 189 to 191 °C and > 5 nM.
For `O=[N+]([O-])c1ccc(Oc2cc(Cl)ccc2Cl)c(S(=O)(=O)N2CCSCC2)c1` [Compound 115, 4-(2-(2,5-Dichlorophenoxy)-5-nitrophenylsulfonyl)thiomorpholine] the same measures were 191 to 194 °C and > 5 nM.
`Cc1ccc(C)c(Sc2ccc([N+](=O)[O-])cc2S(=O)(=O)N2CCSCC2)c1` [Compound 116, 4-(2-(2,5-Dimethylphenylthio)-5-nitrophenylsulfonyl)thiomorpholine] showed a melting point of 130 to 137 °C. The Ki at CCR3 receptor was > 5 nM.
For `Cc1ccc(C)c(Oc2ccc([N+](=O)[O-])cc2S(=O)(=O)N2CCSCC2)c1` [Compound 117, 4-(2-(2,5-Dimethylphenoxy)-5-nitrophenylsulfonyl)thiomorpholine], the melting point is 144 to 147 °C. Besides, on CCR3 receptor, the Ki is > 5 nM.
`Cc1ccc(C)c(Sc2ccc([N+](=O)[O-])cc2S(=O)(=O)N2CCNCC2)c1` [Compound 122, 1-(2-(2,5-Dimethylphenylthio)-5-nitrophenylsulfonyl)piperazine] yielded a melting point of 142 to 145 °C. The same compound yielded a Ki at CCR3 receptor of 100 to 500 nM.
`O=[N+]([O-])c1ccc(Sc2cc(Cl)ccc2Cl)c(S(=O)(=O)N2CCNCC2)c1` [Compound 123, 1-(2-(2,5-Dichlorophenylthio)-5-nitrophenylsulfonyl)piperazine] showed a melting point of 150 to 153 °C. The Ki on CCR3 receptor was in the range of 10 to 25 nM.
